pIC50: −log10 of the molar value.
Tested on: 8XTBD luciferase reporter (YAP reporter) in HEK293T cells
Test: YAP Reporter Assay
Type: cell-based
Conditions: Homo sapiens, HEK-293T; HEK293T cells stably transfected with 8XTBD luciferase reporter and pRLTK; 24-hr incubation; top concentration 3 μM; read-out: Firefly Luciferase IC50
Method in brief: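 Dual-luciferase read-out after 24 h compound exposure at 37° C, 5% CO2; IC50 and maximum inhibition given separately for 8XTBD-firefly and TK-renilla signals. Stable HEK293T reporter cells, 3×10^3/well, received 10-point 1:3 series starting 3 μM final, in quadruplicate.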

| Structure (SMILES) | pIC50 |
| --- | --- |
| C[C@H](NC(=O)c1ccc2c(-c3ccc(C(F)(F)F)cc3)cccc2c1)C1COC1 [Compound 269, (S)—N-(1-(oxetan-3-yl)ethyl)-5-(4-(trifluoromethyl)phenyl)-2-naphthamide] | > 7.00 |
| C[C@@H](NC(=O)c1ccc2c(-c3ccc(C(F)(F)F)cc3)cccc2c1)C1COC1 [Compound 270, (R)—N-(1-(oxetan-3-yl)ethyl)-5-(4-(trifluoromethyl)phenyl)-2-naphthamide] | 6.00 to 7.00 |
| CC#C[C@H](C)NC(=O)c1ccc2c(-c3ccc(C(F)(F)F)cc3)cccc2c1 [Compound 272, (S)—N-(pent-3-yn-2-yl)-5-(4-(trifluoromethyl)phenyl)-2-naphthamide] | > 7.00 |
| CC#C[C@@H](C)NC(=O)c1ccc2c(-c3ccc(C(F)(F)F)cc3)cccc2c1 [Compound 273, (R)—N-(pent-3-yn-2-yl)-5-(4-(trifluoromethyl)phenyl)-2-naphthamide] | > 7.00 |
| C#C[C@H](C)NC(=O)c1ccc2c(-c3ccc(C(F)(F)F)cc3)cccc2c1 [Compound 274, (S)—N-(but-3-yn-2-yl)-5-(4-(trifluoromethyl)phenyl)-2-naphthamide] | > 7.00 |
| C#C[C@@H](C)NC(=O)c1ccc2c(-c3ccc(C(F)(F)F)cc3)cccc2c1 [Compound 275, (R)—N-(but-3-yn-2-yl)-5-(4-(trifluoromethyl)phenyl)-2-naphthamide] | > 7.00 |
| C[C@H](NC(=O)c1ccc2c(-c3ccc(C(F)(F)F)cc3)cccc2c1)c1c[nH]cn1 [Compound 276, (S)—N-(1-(1H-imidazol-4-yl)ethyl)-5-(4-(trifluoromethyl)phenyl)-2-naphthamide] | 6.00 to 7.00 |
| C[C@@H](NC(=O)c1ccc2c(-c3ccc(C(F)(F)F)cc3)cccc2c1)c1c[nH]cn1 [Compound 277, (R)—N-(1-(1H-imidazol-4-yl)ethyl)-5-(4-(trifluoromethyl)phenyl)-2-naphthamide] | 6.00 to 7.00 |
| C[C@H](NC(=O)c1ccc2c(-c3ccc(C(F)(F)F)cc3)cccc2c1)c1nnn(C)n1 [Compound 278, (S)—N-(1-(2-methyl-2H-tetrazol-5-yl)ethyl)-5-(4-(trifluoromethyl)phenyl)-2-naphthamide] | 6.00 to 7.00 |
| C[C@@H](NC(=O)c1ccc2c(-c3ccc(C(F)(F)F)cc3)cccc2c1)c1nnn(C)n1 [Compound 279, (R)—N-(1-(2-methyl-2H-tetrazol-5-yl)ethyl)-5-(4-(trifluoromethyl)phenyl)-2-naphthamide] | > 7.00 |
| C[C@H](NC(=O)c1ccc2c(-c3ccc(C(F)(F)F)cc3)cccc2c1)c1nnnn1C [Compound 280, (S)—N-(1-(1-methyl-1H-tetrazol-5-yl)ethyl)-5-(4-(trifluoromethyl)phenyl)-2-naphthamide] | 5.52 to 6.00 |
| C[C@@H](NC(=O)c1ccc2c(-c3ccc(C(F)(F)F)cc3)cccc2c1)c1nnnn1C [Compound 281, (R)—N-(1-(1-methyl-1H-tetrazol-5-yl)ethyl)-5-(4-(trifluoromethyl)phenyl)-2-naphthamide] | 6.00 to 7.00 |
| C[C@H](NC(=O)c1ccc2c(-c3ccc(C(F)(F)F)cc3)cccc2c1)c1cnccn1 [Compound 282, (S)—N-(1-(pyrazin-2-yl)ethyl)-5-(4-(trifluoromethyl)phenyl)-2-naphthamide] | 6.00 to 7.00 |
| C[C@@H](NC(=O)c1ccc2c(-c3ccc(C(F)(F)F)cc3)cccc2c1)c1cnccn1 [Compound 283, (R)—N-(1-(pyrazin-2-yl)ethyl)-5-(4-(trifluoromethyl)phenyl)-2-naphthamide] | > 7.00 |
| C[C@@H](NC(=O)c1ccc2c(-c3ccc(C(F)(F)F)cc3)cccc2c1)c1cccc(N(C)C)n1 [Compound 286, (R)—N-(1-(6-(dimethylamino)pyridin-2-yl)ethyl)-5-(4-(trifluoromethyl)phenyl)-2-naphthamide] | > 7.00 |
| C[C@H](NC(=O)c1ccc2c(-c3ccc(C(F)(F)F)cc3)cccc2c1)c1cccc(N(C)C)n1 [Compound 287, (S)—N-(1-(6-(dimethylamino)pyridin-2-yl)ethyl)-5-(4-(trifluoromethyl)phenyl)-2-naphthamide] | 6.00 to 7.00 |
| O=C(NC1(c2ccccc2)COC1)c1ccc2c(-c3ccc(C(F)(F)F)cc3)cccc2c1 [Compound 288, N-(3-phenyloxetan-3-yl)-5-(4-(trifluoromethyl)phenyl)-2-naphthamide] | > 7.00 |
| C[C@H](NC(=O)c1ccc2c(-c3ccc(C(F)(F)F)cc3)cccc2c1)C1CC1 [Compound 289, (S)—N-(1-cyclopropylethyl)-5-(4-(trifluoromethyl)phenyl)-2-naphthamide] | > 7.00 |
| C[C@@H](NC(=O)c1ccc2c(-c3ccc(C(F)(F)F)cc3)cccc2c1)C1CC1 [Compound 290, (R)—N-(1-cyclopropylethyl)-5-(4-(trifluoromethyl)phenyl)-2-naphthamide] | > 7.00 |

| Structure (SMILES) | pIC50 |
| --- | --- |
| COc1cc(-c2ccc(C(F)(F)F)cc2)c2ccc(C(=O)NC(CO)c3ccccn3)cc2c1 (stereo not shown) [Compound 291, N-(2-Hydroxy-1-(pyridin-2-yl)ethyl)-7-methoxy-5-(4-(trifluoromethyl)phenyl)-2-naphthamide] | > 7.00 |
| COc1cc(-c2ccc(C(F)(F)F)cc2)c2ccc(C(=O)N[C@@H](C)c3ccccn3)cc2c1 [Compound 292, (S)-7-Methoxy-N-(1-(pyridin-2-yl)ethyl)-5-(4-(trifluoromethyl)phenyl)-2-naphthamide] | > 7.00 |
| COc1cc(-c2ccc(C(F)(F)F)cc2)c2ccc(C(=O)N[C@H](C)c3ccccn3)cc2c1 [Compound 293, (R)-7-Methoxy-N-(1-(pyridin-2-yl)ethyl)-5-(4-(trifluoromethyl)phenyl)-2-naphthamide] | > 7.00 |
| COC[C@H](C)NC(=O)c1ccc2c(-c3ccc(C(F)(F)F)cc3)cc(OC)cc2c1 [Compound 294, (S)-7-Methoxy-N-(1-methoxypropan-2-yl)-5-(4-(trifluoromethyl)phenyl)-2-naphthamide] | > 7.00 |
| COC[C@@H](C)NC(=O)c1ccc2c(-c3ccc(C(F)(F)F)cc3)cc(OC)cc2c1 [Compound 295, (R)-7-Methoxy-N-(1-methoxypropan-2-yl)-5-(4-(trifluoromethyl)phenyl)-2-naphthamide] | > 7.00 |
| COc1cc(-c2ccc(C(F)(F)F)cc2)c2ccc(C(=O)N[C@@H](C)CO)cc2c1 [Compound 296, (S)—N-(1-Hydroxypropan-2-yl)-7-methoxy-5-(4-(trifluoromethyl)phenyl)-2-naphthamide] | > 7.00 |
| COc1cc(-c2ccc(C(F)(F)F)cc2)c2ccc(C(=O)N[C@H](C)CO)cc2c1 [Compound 297, (R)—N-(1-Hydroxypropan-2-yl)-7-methoxy-5-(4-(trifluoromethyl)phenyl)-2-naphthamide] | > 7.00 |
| CC(C)NC(=O)c1ccc2c(-c3ccc(C(F)(F)F)cc3)cn3ncnc3c2c1 [Compound 298, N-Isopropyl-6-(4-(trifluoromethyl)phenyl)-[1,2,4]triazolo[5,1-a]isoquinoline-9-carboxamide] | 6.00 to 7.00 |
| CC(C)NC(=O)c1ccc2c(-c3ccc(C(F)(F)F)cc3)cn3ccnc3c2c1 [Compound 299, N-Isopropyl-6-(4-(trifluoromethyl)phenyl)imidazo[2,1-a]isoquinoline-9-carboxamide] | 6.00 to 7.00 |
| CC(C)NC(=O)c1ccc2c(-c3ccc(C(F)(F)F)cc3)cc3ncnn3c2c1 [Compound 300, N-Isopropyl-5-(4-(trifluoromethyl)phenyl)-[1,2,4]triazolo[1,5-a]quinoline-8-carboxamide] | 6.00 to 7.00 |
| CC(C)NC(=O)c1ccc2c(-c3ccc(C(F)(F)F)cc3)cc(=O)n(C)c2c1 [Compound 306, N-Isopropyl-1-methyl-2-oxo-4-(4-(trifluoromethyl)phenyl)-1,2-dihydroquinoline-7-carboxamide] | 6.00 to 7.00 |
| CC(C)NC(=O)c1ccc2c(-c3ccc(C(F)(F)F)cc3)cc3nncn3c2c1 [Compound 307, N-Isopropyl-5-(4-(trifluoromethyl)phenyl)-[1,2,4]triazolo[4,3-a]quinoline-8-carboxamide] | 6.00 to 7.00 |
| CS(=O)(=O)/C=C/CCNC(=O)c1ccc2c(-c3ccc(C(F)(F)F)cc3)cccc2c1 [Compound 311, (E)-N-(4-(Methylsulfonyl)but-3-en-1-yl)-5-(4-(trifluoromethyl)phenyl)-2-naphthamide] | > 7.00 |
| C[C@H](CCN(C)C)NC(=O)c1ccc2c(-c3ccc(C(F)(F)F)cc3)cccc2c1 [Compound 313, N-[(1R)-3-(dimethylamino)-1-methyl-propyl]-5-[4-(trifluoromethyl)phenyl]naphthalene-2-carboxamide] | 6.00 to 7.00 |
| CCNCC[C@@H](C)NC(=O)c1cnc2c(-c3ccc(C(F)(F)F)cc3)cccc2c1 [Compound 316, N-[(1R)-3-(ethylamino)-1-methyl-propyl]-8-[4-(trifluoromethyl)phenyl]quinoline-3-carboxamide] | 6.00 to 7.00 |
| C[C@@H](NC(=O)c1cnc2c(-c3ccc(C(F)(F)F)cc3)cccc2c1)C1CN(CC(F)F)C1 [Compound 317, (R)—N-(1-(1-(2,2-difluoroethyl)azetidin-3-yl)ethyl)-8-(4-(trifluoromethyl)phenyl)quinoline-3-carboxamide] | 6.00 to 7.00 |
| C[C@@H](NC(=O)c1cnc2c(-c3ccc(C(F)(F)F)cc3)cccc2c1)C1CN(CCF)C1 [Compound 318, (R)—N-(1-(1-(2-fluoroethyl)azetidin-3-yl)ethyl)-8-(4-(trifluoromethyl)phenyl)quinoline-3-carboxamide] | 6.00 to 7.00 |
| C[C@H](CCN(C)C)NC(=O)c1cnc2c(-c3ccc(C(F)(F)F)cc3)cccc2c1 [Compound 319, N-[(1R)-3-(Dimethylamino)-1-methyl-propyl]-8-[4-(trifluoromethyl)phenyl]quinoline-3-carboxamide] | 6.00 to 7.00 |
